Test: Qualitative solubility tests (polarizing microscope, drop of liquid under cover glass)
Format: physicochemical
Source text: Qualitative solubility tests. A few granules of the βCD or MβCD were placed on a microscope slide, covered with a cover glass, and examined with a polarizing microscope while a drop of liquid was placed to flow under the cover glass. These liquids comprised solvents having a wide range of solubility parameters and a number of monomers that might be of interest in dental or industrial formulations.

Compound | subjective solubility in ethylene glycol dimethyl ether (ethylene glycol dimethyl ether) | subjective solubility in methanol | subjective solubility in water | subjective solubility in 1,3-glycerol dimethacrylate (1,3-glycerol dimethacrylate) | subjective solubility in benzyl methacrylate (benzyl methacrylate) | subjective solubility in hydroxyethyl methacrylate (hydroxyethyl methacrylate) | subjective solubility in triethyleneglycol dimethacrylate (triethyleneglycol dimethacrylate) | subjective solubility in undiluted BIS-GMA (undiluted BIS-GMA)
OC[C@H]1O[C@@H]2O[C@H]3[C@H](O)[C@@H](O)[C@@H](O[C@H]4[C@H](O)[C@@H](O)[C@@H](O[C@H]5[C@H](O)[C@@H](O)[C@@H](O[C@H]6[C@H](O)[C@@H](O)[C@@H](O[C@H]7[C@H](O)[C@@H](O)[C@@H](O[C@H]8[C@H](O)[C@@H](O)[C@@H](O[C@H]1[C@H](O)[C@H]2O)O[C@@H]8CO)O[C@@H]7CO)O[C@@H]6CO)O[C@@H]5CO)O[C@@H]4CO)O[C@@H]3CO [βCD, beta-cyclodextrin, reference compound] | practically insoluble | practically insoluble | very slowly and only slightly soluble |  |  |  |  | 
fully methacrylated beta-cyclodextrin [MβCD] |  | very rapidly soluble (miscible) | practically insoluble | slowly soluble | promptly soluble | promptly soluble | slowly soluble | very slowly soluble
